{"source": "ChEMBL document CHEMBL5506043", "about": "“A β-Carboline Derivate PAD4 Inhibitor Reshapes Neutrophil Phenotype and Improves the Tumor Immune Microenvironment against Triple-Negative Breast Cancer” (J Med Chem, 2024)", "key": {"[1]": {"target": "Protein-arginine deiminase type-2 (Homo sapiens, UniProt Q9Y2J8)", "sequence (Q9Y2J8 whole entry)": "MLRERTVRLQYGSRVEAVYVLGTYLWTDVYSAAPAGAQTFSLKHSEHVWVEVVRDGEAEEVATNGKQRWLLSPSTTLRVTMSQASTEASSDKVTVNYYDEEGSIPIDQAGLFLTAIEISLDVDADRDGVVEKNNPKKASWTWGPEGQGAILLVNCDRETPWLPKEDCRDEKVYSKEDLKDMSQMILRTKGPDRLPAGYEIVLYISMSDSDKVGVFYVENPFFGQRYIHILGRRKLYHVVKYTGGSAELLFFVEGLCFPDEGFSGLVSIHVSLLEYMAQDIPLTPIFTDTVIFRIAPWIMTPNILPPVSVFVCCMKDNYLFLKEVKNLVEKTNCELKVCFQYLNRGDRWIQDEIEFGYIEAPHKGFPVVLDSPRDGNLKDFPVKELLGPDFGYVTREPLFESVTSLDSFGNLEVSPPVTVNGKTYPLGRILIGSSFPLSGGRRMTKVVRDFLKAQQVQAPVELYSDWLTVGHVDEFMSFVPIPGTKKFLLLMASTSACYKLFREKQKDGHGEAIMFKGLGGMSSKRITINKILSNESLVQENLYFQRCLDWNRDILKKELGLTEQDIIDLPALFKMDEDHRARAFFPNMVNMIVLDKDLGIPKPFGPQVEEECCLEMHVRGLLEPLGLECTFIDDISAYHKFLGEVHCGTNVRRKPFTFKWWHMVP", "experiment": "Inhibition of PAD2 (unknown origin) using Nalpha-benzoyl-L-arginine ethyl ester as substrate preincubated for 60 mins followed by substrate addition and measured after 90 mins by colorimetric analysis"}, "[2]": {"target": "Protein-arginine deiminase type-4 (Homo sapiens, UniProt Q9UM07)", "sequence (Q9UM07 whole entry)": "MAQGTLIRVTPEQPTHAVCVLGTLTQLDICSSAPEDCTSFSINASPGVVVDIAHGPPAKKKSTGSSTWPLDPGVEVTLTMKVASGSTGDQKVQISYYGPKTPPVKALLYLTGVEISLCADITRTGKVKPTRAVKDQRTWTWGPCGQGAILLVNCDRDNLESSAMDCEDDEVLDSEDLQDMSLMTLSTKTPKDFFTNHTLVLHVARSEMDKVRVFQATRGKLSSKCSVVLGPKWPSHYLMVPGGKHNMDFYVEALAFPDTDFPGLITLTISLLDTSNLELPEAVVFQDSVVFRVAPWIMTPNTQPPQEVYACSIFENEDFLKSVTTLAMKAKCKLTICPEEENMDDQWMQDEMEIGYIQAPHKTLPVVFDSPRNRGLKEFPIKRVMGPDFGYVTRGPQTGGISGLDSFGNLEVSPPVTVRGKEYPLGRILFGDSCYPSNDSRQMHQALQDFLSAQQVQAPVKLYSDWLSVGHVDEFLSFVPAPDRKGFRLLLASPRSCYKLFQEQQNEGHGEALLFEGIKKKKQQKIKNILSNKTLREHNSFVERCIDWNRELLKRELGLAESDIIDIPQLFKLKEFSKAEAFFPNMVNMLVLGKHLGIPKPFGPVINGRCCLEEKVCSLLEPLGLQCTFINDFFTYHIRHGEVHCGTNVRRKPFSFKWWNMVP", "experiment": "Inhibition of PAD4 (unknown origin) using Nalpha-benzoyl-L-arginine ethyl ester as substrate preincubated for 60 mins followed by substrate addition and measured after 90 mins by colorimetric analysis"}, "4T1": {"tested_on": "4T1", "experiment": "Antiproliferative activity against mouse 4T1 cells assessed as inhibition of cell growth incubated for 48 hrs by MTT assay", "type": "functional, cell-based", "details": "4T1, 48 h"}, "MDA-MB-468": {"tested_on": "MDA-MB-468", "experiment": "Antiproliferative activity against human MDA-MB-468 cells assessed as inhibition of cell growth incubated for 48 hrs by MTT assay", "type": "functional, cell-based", "details": "MDA-MB-468, 48 h"}, "[3]": {"experiment": "Cytotoxicity against human MCF-10A cells assessed as inhibition of cell growth incubated for 48 hrs by MTT assay", "type": "toxicity, cell-based"}, "[4]": {"target": "Protein-arginine deiminase type-4 (Mus musculus) (UniProt Q9Z183)", "sequence (Q9Z183 whole entry)": "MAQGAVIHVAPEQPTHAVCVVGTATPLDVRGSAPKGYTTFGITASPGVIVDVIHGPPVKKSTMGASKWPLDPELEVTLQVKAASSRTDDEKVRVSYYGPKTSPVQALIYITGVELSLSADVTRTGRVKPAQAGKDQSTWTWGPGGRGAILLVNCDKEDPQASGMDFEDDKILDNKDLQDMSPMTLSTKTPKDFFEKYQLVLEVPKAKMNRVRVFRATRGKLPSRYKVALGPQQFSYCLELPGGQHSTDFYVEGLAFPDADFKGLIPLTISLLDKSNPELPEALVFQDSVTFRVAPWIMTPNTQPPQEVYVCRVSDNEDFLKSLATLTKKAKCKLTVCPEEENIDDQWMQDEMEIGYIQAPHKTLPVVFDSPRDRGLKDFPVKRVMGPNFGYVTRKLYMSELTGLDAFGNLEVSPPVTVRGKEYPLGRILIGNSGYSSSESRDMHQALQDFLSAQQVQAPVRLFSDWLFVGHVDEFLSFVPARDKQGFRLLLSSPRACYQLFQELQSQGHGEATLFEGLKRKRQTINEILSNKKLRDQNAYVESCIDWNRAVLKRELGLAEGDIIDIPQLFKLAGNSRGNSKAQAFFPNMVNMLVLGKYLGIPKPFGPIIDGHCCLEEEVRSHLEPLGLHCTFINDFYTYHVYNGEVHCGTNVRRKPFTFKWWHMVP", "experiment": "Inhibition of PAD4 in BALB/c mouse bone marrow neutrophils assessed as reduction in histone H3 citrullination at 2 uM preincubated for 2 hrs followed by calcium ionophore A23187 addition and measured after 2 hrs by Hoechst 33342/Ly6G staining based laser confocal microscopic analysis", "details": "Neutrophil, time 4.0 hrs"}, "[5]": {"target": "Protein-arginine deiminase type-4 (Mus musculus) (UniProt Q9Z183)", "experiment": "Inhibition of PAD4 in BALB/c mouse bone marrow neutrophils assessed as reduction in neutrophil extracellular traps formation at 2 uM preincubated for 2 hrs followed by calcium ionophore A23187 addition and measured after 2 hrs by Hoechst 33342/Ly6G staining based laser confocal microscopic analysis", "type": "tissue-based", "details": "time 4.0 hrs"}, "[6]": {"experiment": "Tmax in male Sprague-Dawley rat at 3.5 mg/kg, iv by LC-MS/MS analysis", "type": "ADME, organism-based", "details": "in vivo"}, "[7]": {"experiment": "Terminal half life in male Sprague-Dawley rat at 3.5 mg/kg, iv by LC-MS/MS analysis", "type": "ADME, organism-based", "details": "in vivo"}, "[8]": {"experiment": "Cmax in male Sprague-Dawley rat at 3.5 mg/kg, iv by LC-MS/MS analysis", "type": "ADME, organism-based", "details": "in vivo"}, "[9]": {"experiment": "AUC (0 to t) in male Sprague-Dawley rat at 3.5 mg/kg, iv by LC-MS/MS analysis", "type": "ADME, organism-based", "details": "in vivo"}, "[10]": {"experiment": "AUC (0 to infinity) in male Sprague-Dawley rat at 3.5 mg/kg, iv by LC-MS/MS analysis", "type": "ADME, organism-based", "details": "in vivo"}, "[11]": {"experiment": "Antitumor activity against mouse orthotopic 4T1-Luc cells implanted in female BALB/c mouse assessed as tumor growth inhibition at 10 mg/kg, iv administered via tail vein every 2 days for 9 times for 17 days and measured every 2 days relative to control", "type": "functional", "details": "408 h, time 17 day, read-out: TGI"}, "[12]": {"experiment": "Toxicity in female BALB/c mouse implanted with mouse orthotopic 4T1-Luc cells assessed as reduction in body weight at 10 mg/kg, iv administered via tail vein every 2 days for 9 times for 17 days and measured every 2 days", "type": "organism-based", "details": "in vivo, 408 h, time 17 day"}, "[13]": {"experiment": "Toxicity in female BALB/c mouse implanted with mouse orthotopic 4T1-Luc cells assessed as reduction in liver weight at 10 mg/kg, iv administered via tail vein every 2 days for 9 times for 17 days", "type": "organism-based", "details": "in vivo, 408 h, time 17 day"}, "[14]": {"experiment": "Toxicity in female BALB/c mouse implanted with mouse orthotopic 4T1-Luc cells assessed as reduction in kidney weight at 10 mg/kg, iv administered via tail vein every 2 days for 9 times for 17 days", "type": "organism-based", "details": "in vivo, 408 h, time 17 day"}, "Mus musculus": {"tested_on": "Mus musculus", "experiment": "In vivo inhibition of PAD4 in female BALB/c mouse implanted with mouse orthotopic 4T1-Luc cells assessed as inhibition of histone H3 citrullination in tumor at 10 mg/kg, iv administered via tail vein every 2 days for 9 times for 17 days by immunohistochemical staining based analysis", "type": "functional, organism-based", "details": "time 17.0 day"}, "Neutrophil": {"tested_on": "Neutrophil", "experiment": "In vivo inhibition of PAD4 in female BALB/c mouse implanted with mouse orthotopic 4T1-Luc cells assessed as inhibition of neutrophil extracellular traps formation in tumor at 10 mg/kg, iv administered via tail vein every 2 days for 9 times for 17 days by immunohistochemical staining based analysis", "type": "functional, organism-based", "details": "time 17.0 day"}, "[15]": {"target": "T1, Protein-arginine deiminase type-3 (Homo sapiens) (UniProt Q9ULW8)", "T1 sequence (whole entry)": "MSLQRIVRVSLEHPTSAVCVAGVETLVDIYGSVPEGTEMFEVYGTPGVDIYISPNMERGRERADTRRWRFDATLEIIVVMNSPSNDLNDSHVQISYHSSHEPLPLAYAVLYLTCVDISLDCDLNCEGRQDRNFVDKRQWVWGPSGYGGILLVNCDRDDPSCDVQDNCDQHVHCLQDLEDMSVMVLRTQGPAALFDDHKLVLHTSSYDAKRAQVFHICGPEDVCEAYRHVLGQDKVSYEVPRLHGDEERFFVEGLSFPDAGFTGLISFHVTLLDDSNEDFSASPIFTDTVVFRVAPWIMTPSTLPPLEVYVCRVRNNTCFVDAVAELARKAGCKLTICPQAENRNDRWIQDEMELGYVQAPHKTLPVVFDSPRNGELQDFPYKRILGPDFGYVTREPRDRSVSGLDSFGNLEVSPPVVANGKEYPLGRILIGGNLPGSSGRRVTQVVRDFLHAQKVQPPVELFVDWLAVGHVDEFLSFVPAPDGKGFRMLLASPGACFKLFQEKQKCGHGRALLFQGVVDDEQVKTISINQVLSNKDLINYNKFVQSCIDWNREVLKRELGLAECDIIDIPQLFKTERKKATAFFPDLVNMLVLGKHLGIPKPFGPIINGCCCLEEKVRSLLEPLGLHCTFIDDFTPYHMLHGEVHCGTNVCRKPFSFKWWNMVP", "experiment": "Inhibition of 6His-tagged recombinant human PAD3 expressed in Escherichia coli BL21-DE3 pLysS cells using N-benzoylated arginine ethyl ester hydrochloride as substrate assessed as ratio of Kinact/Ki preincubated for 30 mins followed by substrate addition and measured after 15 mins by […] assay", "details": "time 45.0 min"}, "[16]": {"experiment": "Antitumor activity against mouse orthotopic 4T1-Luc cells implanted in female BALB/c mouse assessed as tumor growth inhibition at 1.16 mg/kg, iv administered via tail vein every 2 days for 9 times for 17 days and measured every 2 days relative to control", "type": "functional", "details": "408 h, time 17 day, read-out: TGI"}, "[17]": {"experiment": "Toxicity in female BALB/c mouse implanted with mouse orthotopic 4T1-Luc cells assessed as reduction in body weight at 1.16 mg/kg, iv administered via tail vein every 2 days for 9 times for 17 days and measured every 2 days", "type": "organism-based", "details": "in vivo, 408 h, time 17 day"}}, "note": "Where a name gives a salt, the structure may show the parent alone. Active and inactive are the calls of the source. The calls are words filed in the database; no cut-off is given here.", "data": [{"molecule": "CN(C)c1ccc2cc(C(=O)N[C@@H](CCCNC(=N)CCl)C(=O)NCc3ccccc3)ccc2c1", "values": [{"measurement": "IC50", "setting": "[1]", "result": 5.28, "unit": "µM"}, {"measurement": "IC50", "setting": "[2]", "result": 3.54, "unit": "µM"}, {"measurement": "IC50", "setting": "4T1", "result": 7.34, "unit": "µM"}, {"measurement": "IC50", "setting": "MDA-MB-468", "result": 5.16, "unit": "µM"}, {"measurement": "IC50 at 48 h", "setting": "[3]", "result": 4.3, "unit": "µM"}, {"measurement": "inhibition", "setting": "[4]", "result": "Active"}, {"measurement": "inhibition", "setting": "[5]", "result": "Active"}, {"measurement": "Tmax", "setting": "[6]", "result": 4.8, "unit": "min"}, {"measurement": "beta t1/2", "setting": "[7]", "result": 7.8, "unit": "min"}, {"measurement": "Cmax", "setting": "[8]", "result": 251.2, "unit": "ng/mL"}, {"measurement": "AUC(0-t)", "setting": "[9]", "result": 14.9, "unit": "ng·h/mL"}, {"measurement": "AUC", "setting": "[10]", "result": 17214.17, "unit": "ng·h/mL"}, {"measurement": "inhibition in vivo at 10 mg/kg", "setting": "[11]", "result": 36.2, "unit": "%"}, {"measurement": "Activity", "setting": "[12]", "result": "Non-Toxic"}, {"measurement": "Activity", "setting": "[13]", "result": "Toxic"}, {"measurement": "Activity", "setting": "[14]", "result": "Toxic"}, {"measurement": "inhibition", "setting": "Mus musculus", "result": "Active"}, {"measurement": "inhibition", "setting": "Neutrophil", "result": "Active"}]}, {"molecule": "N=C(CCl)NCCCC1NC(=O)N(Cc2cccc(-c3ccccc3Cl)c2)C1=O", "note": "(stereo unspecified)", "values": [{"measurement": "Ratio", "setting": "[15]", "result": 15600, "unit": "min⁻¹ M⁻¹"}]}, {"molecule": "COc1cccc2c1C(=O)c1c(O)c3c(c(O)c1C2=O)C[C@@](O)(C(=O)CO)C[C@@H]3O[C@H]1C[C@H](N)[C@H](O)[C@H](C)O1", "note": "[DOXORUBICIN HYDROCHLORIDE]", "values": [{"measurement": "inhibition in vivo at 1.16 mg/kg", "setting": "[16]", "result": 54.6, "unit": "%"}, {"measurement": "Activity", "setting": "[17]", "result": "Non-Toxic"}]}]}
